Patent publication US20240116923A1, “USE OF INDOLE, 6- AND 7-AZAINDOLE DERIVATIVES AS INHIBITORS OF FERROPTOSIS REGULATED CELL DEATH” (Seabelife, priority 2021, published 2024)
Read-outs that look alike come from different tables or passages of the source.

Assays:
[1] = test system: Abca4−/−Rdh8−/− mice; test: In vivo model of Stargardt's disease and AMD, blue light damage, ERG and OCT
Protocol: As described in Parmar et al., Invest Ophthalmol Vis Sci., 2016, 57(7), mice lacking ATP-binding cassette transporter 4 (ABCA4) and retinol dehydrogenase 8 (RDH8) mimic features of human Stargardt's disease and age-related macular degeneration. Intense light exposure can accelerate retinal degeneration in Abca4^−/−Rdh8^−/− mice.
Blue light damage (BLD) experiments are performed on 7-week-old Abca4−/−Rdh8−/− mice. The animals were adapted to low light levels (4000 lux, 30 minutes). Six days after BLD, an optical coherence tomography (OCT) examination of each eye is performed, which provides a “snapshot” of the state of the retinal cell layers in living mice. OCT is based on the use of a low coherence interferometer. This imaging technique allows in vivo cross-sectional images of tissues to be taken with a resolution of a few microns. It is performed under light gas anaesthesia (5% isoflurane at induction then 2% during maintenance) and is non-invasive. The pupils of the mice are dilated with 0.5% Midriaticum. A representative image of each eye was extracted and included in separate report documents (4 OCT attachments). The following day, measurements of the electrical activity of the retina were made by measuring scotopic and photopic electroretinograms (ERG). The scotopic ERG is performed after a night in the dark in order to measure the electrical response of the rods which represent 97% of the photoreceptors in the mouse. At higher intensities, the cones also respond. This is followed by a photopic ERG which records the response of the cones only. Three measurements corresponding to the activity of 1) rod and cone photoreceptors, 2) inner retinal bipolar cells and 3) cones only, are obtained. The eyes are then harvested and prepared for subsequent histological analysis. In the IP experiments, one eye is dissected and the retina and RPE are frozen separately. These tissues can be used for further measurements.
Compound 1 in powder form is taken up in DMSO in order to obtain a solution at 20 mM. These solutions are stored at −20° C. and are thawed extemporaneously to prepare a solution diluted 89 times in PBS. These solutions give a final concentration in the eye of around 50 μM for compound 1, and 0.25% DMSO. A vehicle is prepared from pure DMSO to achieve a final 0.25% in the vitreous. Mice are lightly anaesthetised with isoflurane during the IVT procedure. A volume of 1.5 μL is injected into the vitreous of the left eye.
In order to measure the thickness of the retina and the photoreceptor layer, image processing was performed using Image J software. The thickness of the whole retina is measured between the outer segment layer and the ganglion cell layer. The thickness of the photoreceptor layer is measured between the outer plexiform layer and the outer segment layer. On average 6 measurements are made along the length of an OCT image representing an upper or lower half-retina. In order to prepare plates of sections of the eyes from the SBL2 IVT experiment, one eye corresponding to each condition was cut on the cryostat, i.e. one NINI eye and both eyes of an SBL2-injected mouse (I and NI).
The solutions are prepared extemporaneously from water-soluble lyophilisates of compound 7 (SBL1)-cyclodextrin (final CD concentration, 15%) and the corresponding placebos. The solutions are prepared by injecting a predefined volume of 0.9% NaCl into the vial. The vial is then vortexed and the solution is filtered into a new sterile tube. Two groups of 3 mice are used for these tests. The group received either SBL1 (20 mg/kg) (n=3) or placebo-SBL1 (n=3). The volume to be injected is calculated according to the weight of the mice and corresponds to 10 ml/kg. Mice were injected 3 and 1 h before and 1 and 3 h after the start of the BLD.

[2] = test system: mouse hippocampal neuronal cell line HT22; test: Neurotoxicity and excitotoxicity assay, HT22 cells + glutamate, erastin or RSL3, MTS cell viability; type: cell-based; conditions: Mus musculus
Protocol: The excitotoxicity model used was the mouse hippocampal neuronal HT22 cells treated with glutamate [Dixon et al., Cell, 2012, 149(5), 1060-1072]. Ferroptosis and oxidative stress are both associated in this glutamate-induced cell death [Chu et al., Neural Regen. Res., 2020, 15(3), 528-536]. Phenotypic screening was also carried out with additional cell death inducers, erastin and RSL3 ((1S,3R)-Ras-selective lethal), in HT22 and SH-SY5Y (human neuroblastoma cells). Erastin and RSL3 are well described molecules, used as chemical tools for the study of ferroptosis regulation and neuronal pathologies [Lewerenz et al., Front. Neurosci., 2018, 12: 214; Reichert et al., Int. J. Mol. Sci., 2020, 21, 8765].
Mouse hippocampal neuronal cell line (HT22, ATCC) and human neuroblastoma cell line (SH-SY5Y, ATCC) were grown in Dulbecco's Modified Eagle Medium (DMEM, Gibco) supplemented with 10% fetal bovine serum (FBS, Gibco) at 37° C. under 5% CO2 atmosphere. Neurotoxicity was induced by erastin or RSL3 and excitotoxicity was induced by glutamate. Cells were seeded in 96-well plates at 5,000 and 10,000 cells/well for HT22 and SH-SY5Y cell lines, respectively. Cells were treated with 0.5-1 μM Erastin (HT22 cells) or 10 μM Erastin (SH-SY5Y cells) or 5-10 mM glutamate (HT22 cells) or 0.5 μM RSL3 (HT22 cells) or 5 μM RSL3 (SH-SY5Y cells) for 24 h in presence of increasing concentrations of inhibitors. Cells treated with DMSO only were used as controls. Cell viability was assessed by MTS assay (CellTiter 96 AQueous One Solution Cell Proliferation assay, Promega).
In FIGS. 1, 2A and 2B, an inhibitor was added to HT22 (FIG. 1: compound 6) or SH-SY5Y (FIG. 2A: compound 6; FIG. 2B: compound 25) cells in the presence or not of cell death inducers (erastin, glutamate or RSL3). […] EC50 values for compounds 1-28 were calculated from dose-response curves using Graphpad Prism software.

SMILES	electrical response of retinal cells (scotopic and photopic ERG) compared to placebo ([1]; intraperitoneal 20 mg/kg, 3 and 1 h before and 1 and 3 h after start of BLD, cyclodextrin lyophilisate)	scotopic B wave at higher intensities (inner retina response) ([1]; intraperitoneal 20 mg/kg, FIG. 35)	scotopic ERG response to the 30 cd·s/m^2 flash intensity (mixed rod-cone response) ([1]; intraperitoneal 20 mg/kg, FIGS. 34 & 35)	whole retinal thickness from OCT, injected vs non-injected mice ([1]; intraperitoneal treatment, FIG. 36)	EC50 ([2]; HT-22, HT22 cells, 0.5 μM RSL3, 24 h, MTS, read-out: EC50 HT22 RSL3)	EC50 ([2]; HT-22, HT22 cells, 0.5-1 μM Erastin, 24 h, MTS, read-out: EC50 HT22 Erastin)	EC50 ([2]; HT-22, HT22 cells, 5-10 mM glutamate, 24 h, MTS, read-out: EC50 HT22 Glutamate)	electrical response of retinal cells (scotopic and photopic ERG) ([1]; intravitreal injection, 50 μM in the eye, after blue light damage)	thickness of the retinas from OCT, injected versus non-injected eyes ([1]; intravitreal treatment, FIG. 33)	photopic ERG, injected vs non-injected eyes ([1]; intravitreal, 50 μM, 30 cd·s/m2, FIG. 30)	scotopic ERG B wave, injected vs uninjected eyes ([1]; intravitreal, 50 μM, p=0.048 vs VEH NI at 30 cd·s/m2, FIG. 32)	scotopic ERG A wave, injected eye vs vehicle-injected eye ([1]; intravitreal, 50 μM, significant (P=0.0206) vs VEH NI at 10 cd·s/m2, FIG. 31)	EC50 ([2]; HT-22, 24 h, read-out: EC50 HT22 Erastin)	EC50 ([2]; HT-22, 24 h, read-out: EC50 HT22 Glutamate)	EC50 ([2]; HT-22, 24 h, read-out: EC50 HT22 RSL3)
Oc1ccc(-c2cc3cccnc3[nH]2)cc1 [Compound 7, 4-(1H-pyrrolo[2,3-b]pyridin-2-yl)phenol]	slightly protect the electrical response of retinal cells	protective trend	protective trend	a difference between the whole retinas of injected and non-injected mice	14.6 µM	> 25 µM	> 25 µM	–	–	–	–	–	–	–	–
Oc1ccc(-c2cc3ccccc3[nH]2)cc1 [Compound 1, 4-(1H-indol-2-yl)phenol]	–	–	–	–	–	–	–	appears to preserve the electrical response of retinal cells	significant difference	partially preserved	appears preserved	a clear difference is observed	2.9 µM	2.55 µM	3.27 µM
